Reference: patent publication US20260028374A1, “EPIDERMAL GROWTH FACTOR RECEPTOR INHIBITORS” (FILAMON LTD, priority 2023, published 2026)
Square brackets hold non-standard residues; d marks the D form. Peptide text beside a SMILES is read from it. 2Nal = N[C@@H](Cc1ccc2ccccc2c1)C(=O)O; d1Nal = N[C@H](Cc1cccc2ccccc12)C(=O)O

How the values were obtained:
EGFR [1] = molecular target: T1, EGFR (Homo sapiens, UniProt P00533); assay: EGFR and lysotracker staining in A549 cells; assay type: cell-based; design: endogenous in cells; host or cells: A549; conditions: A549, 16 hours
Procedure: FIG. 5: (a) A549 cells were treated with DMSO (0.5%), EGF (50 ng/mL), or D1-D3 (1-100 μM) for 16 hours, before staining with lysotracker (red), fixing and staining with EGFR antibody (green). (b) EGFR signal, (c) EGFR membrane signal, (d) lysotracker signal and (e) EGFR speckle lysotracker signal (bars SEM) were quantified (n=3, >20 cells per replicate). Scale bars 20 μm.
To investigate the mechanism of how LYTAPS cause EGFR degradation, LYTAPs D1-D3 (1-100 μM) were incubated on A549 cells for 16 hours, with DMSO (0.5%) and high EGF (50 ng/mL) used as controls. Cells were then stained with Lysotracker, fixed and stained with EGFR-antibody. Under DMSO control, the majority of EGFR signal is present at the membrane (FIG. 5a).

[2] = test system: CRC and NSCLC cancer cell lines; assay: Proliferation assays in CRC and NSCLC cancer cell lines
pERK = pERK immunofluorescence in A549 cells after EGF stimulation; assay type: cell-based; conditions: A549, 100 μM for 16 hours, then EGF 10 ng/mL
Procedure: FIG. 6: A549 cells were treated with DMSO or D1-D3 (10-100 μM) for 16 hours before incubation with EGF (10 ng/mL) for 30 minutes, before cells were fixed and stained for pERK (green). Scale bars 20 μm, n=3, >20 cells per replicate.
To examine whether LYTAPs can inhibit EGFR downstream signalling, A549 cells were pre-incubated with 10-100 μM of D1-D3 for 16 hours, before stimulation with EGF (10 ng/mL) for […]. Cells were then fixed and immunofluorescently stained for pERK.

[3] = test system: NSCLC cell lines H3255 and H1975; assay: Combination cell viability in NSCLC cell lines; assay type: cell-based; conditions: H3255 and H1975, 72 hours
EGFR [4] = molecular target: T1, EGFR; assay: Western blot of EGFR in PC-3 cells; assay type: cell-based; conditions: PC-3, 100 μM, time course 3, 16, 24 and 48 hours
Procedure: (§1) FIG. 3. (a) PC-3 cells treated with DMSO (0.5%), FLM-c2 (100 μM), D1-D3 (100 μM) or EGF (50 ng/mL) for 24 h, detected for EGFR and GAPDH. (b) PC-3 cells tagged with EGFR-EGFP and lysotracker treated with DMSO (0.5%) or D3 (100 μM) for 24 h.
FIG. 4. (a) PC-3 cells were treated with D1-D3 (100 μM) for 3, 16, 24 and 48 hours. EGFR and ß-Actin ratio was detected. (b) the EGFR:ß-Actin ratio was plotted after normalising to DMSO control.
PC-3 cells were seeded in a 6 well plate at 200,000 cells/well overnight at 37° C. and 5% C02. Media was removed, cells were washed with PBS and serum free media added 1 hour before treatment with FLM-c2, D1-D3 for 3-48 hours. After treatment, media was removed and cells were washed with ice cold PBS. PBS was removed and cells were scraped into 1 mL of PBS containing 5.3 mM of EDTA and centrifuged at 2500 g for 2 min. PBS was removed and cells were lysed with lysis buffer (PBS, 0.1% NP-40, 0.1% sodium deoxycholate, 150 mM NaCl, 1 mM EDTA, 1 mM dithiothreitol, 1 mM phenylmethylsulfonyl fluoride, and IX protease inhibitor cocktail)^17 and mixed with RM-2L Intelli-mixer for 30 min at 4° C. Lysates were then centrifuged at 12,000 g for 20 min at 4° C. 20 μg of lysate was added to 4 μL of Bolt reducing agent and 10 μL of reducing buffer (both reagents supplied by Thermo Fisher Scientific) for a final volume of 40 μL with PBS. Samples were boiled and run on a gel, transferred to a membrane and blocked for 1 hour in 5% skim milk at 25° C. Membrane was probed with either EGFR antibody #2232, GAPDH antibody #2118 or BS-Actin antibody #4970 (Cell Signalling) at 1:1000 in 5% skim milk/TBST overnight at 4° C. Each membrane was washed three times with 50 mL TBST for 5 mins and then incubated with the relevant secondary α-rabbit IgG-HRP-linked antibody (1:1000), for 1 hour at room temperature. The membrane was washed as described above and imaged with the Licor Odyssey.

EGF-EGFR interaction = molecular target: T2, EGF-EGFR interaction (Homo sapiens, UniProt P00533); assay: EGF-EGFR AlphaLISA assay; assay type: binding; conditions: in vitro AlphaLISA; for inhibition of the EGF/EGFR interaction: 0.01-200 μM
T2 construct: purchased Perkin-Elmer
Procedure: FIG. 2. […] Representation of the molecules are as described in FIG. 1.
The AlphaLISA EGF/EGFR binding kit (Perkin-Elmer) was used as per the manufacturer's instructions. […] Finally, 5 μL of EGFR acceptor beads were added, and fluorescence imaged on a plate reader.

SW48 and SW48G12V = assay: Combination cell viability in isogenic CRC cell lines; assay type: cell-based; conditions: D1 0.001-100 μM with cetuximab 0.02-30 μg/mL, 72 hours
EGFR [5] = molecular target: T1, EGFR; assay: Live cell imaging, EGFR-EGFP and lysotracker in PC-3 cells; assay type: cell-based; conditions: PC-3, EGFR-EGFP and lysotracker, 100 μM, 24 hours
Procedure: as §1
PC-3 cells were seeded in a 24 well glass-bottom plate at 50 000 cells/well and incubated overnight at 37° C. and 5% CO2. Complete media was removed, wells washed with 500 μL of warm PBS for 1 min then removed and 500 μL serum free medium was added and left to incubate for one hour at 37° C. and 5% CO2. Cells were co-transfected with plasmids encoding fusion protein EGFR-EGFP (Addgene plasmid #32751, a gift from Alexander Sorkin) using Lipofectamine 3000 (Thermo Fisher Scientific) as per the manufacturer's instructions. Cells were incubated for 48 hours at 37° C. and 5% CO2, after which transfection efficiency was determined through observation of EGFP and signal with a confocal microscope LSM 800 (Zeiss). LysoTracker far red (Thermo Fisher Scientific) was incubated at 1 μM for 37° C. and 5% CO2. Cells were washed three times with PBS and serum free media was added to cells, Either DMSO (0.5%) or D3 (100 μM) were added overnight at 37° C. and 5% CO2 before imaging on the confocal microscope LSM 800 (Zeiss).

[6] = test system: EGFR, Rab5 and hGIIA localisation; assay: Live cell imaging of EGFR, Rab5 and hGIIA localisation in PC-3 cells; assay type: cell-based; conditions: PC-3, Lapatinib 5 μM, control for EGFR inhibition
Procedure: (e) PC-3 cells co-transfected with Rab5-mCherry (red), EGFR-GFP (green) and treated with hGIIA/AF647 (purple) as well as c2 at 1 μM and 10 μM for 24 hours. EGF (25 ng/mL) and Lapatinib (5 μM) were used as control treatments. N=3, >5 cells per replicate.
The effect of c2 on EGFR, Rab5 and hGIIA localisation was also examined in PC-3 cells. PC-3 cells were co-transfected with EGFR-EGFP and Rab5-mCherry before treatment with hGIIA/AF647 and c2 at 0, 1 and 10 μM.

H3255 = conditions: H3255, EGFR - L858R, cited from earlier work
H1975 = conditions: H1975, EGFR- L858R/T790M, cited from earlier work
[7] = read-out: Resistance (value in brackets)

T1 sequence (P00533 25-1210): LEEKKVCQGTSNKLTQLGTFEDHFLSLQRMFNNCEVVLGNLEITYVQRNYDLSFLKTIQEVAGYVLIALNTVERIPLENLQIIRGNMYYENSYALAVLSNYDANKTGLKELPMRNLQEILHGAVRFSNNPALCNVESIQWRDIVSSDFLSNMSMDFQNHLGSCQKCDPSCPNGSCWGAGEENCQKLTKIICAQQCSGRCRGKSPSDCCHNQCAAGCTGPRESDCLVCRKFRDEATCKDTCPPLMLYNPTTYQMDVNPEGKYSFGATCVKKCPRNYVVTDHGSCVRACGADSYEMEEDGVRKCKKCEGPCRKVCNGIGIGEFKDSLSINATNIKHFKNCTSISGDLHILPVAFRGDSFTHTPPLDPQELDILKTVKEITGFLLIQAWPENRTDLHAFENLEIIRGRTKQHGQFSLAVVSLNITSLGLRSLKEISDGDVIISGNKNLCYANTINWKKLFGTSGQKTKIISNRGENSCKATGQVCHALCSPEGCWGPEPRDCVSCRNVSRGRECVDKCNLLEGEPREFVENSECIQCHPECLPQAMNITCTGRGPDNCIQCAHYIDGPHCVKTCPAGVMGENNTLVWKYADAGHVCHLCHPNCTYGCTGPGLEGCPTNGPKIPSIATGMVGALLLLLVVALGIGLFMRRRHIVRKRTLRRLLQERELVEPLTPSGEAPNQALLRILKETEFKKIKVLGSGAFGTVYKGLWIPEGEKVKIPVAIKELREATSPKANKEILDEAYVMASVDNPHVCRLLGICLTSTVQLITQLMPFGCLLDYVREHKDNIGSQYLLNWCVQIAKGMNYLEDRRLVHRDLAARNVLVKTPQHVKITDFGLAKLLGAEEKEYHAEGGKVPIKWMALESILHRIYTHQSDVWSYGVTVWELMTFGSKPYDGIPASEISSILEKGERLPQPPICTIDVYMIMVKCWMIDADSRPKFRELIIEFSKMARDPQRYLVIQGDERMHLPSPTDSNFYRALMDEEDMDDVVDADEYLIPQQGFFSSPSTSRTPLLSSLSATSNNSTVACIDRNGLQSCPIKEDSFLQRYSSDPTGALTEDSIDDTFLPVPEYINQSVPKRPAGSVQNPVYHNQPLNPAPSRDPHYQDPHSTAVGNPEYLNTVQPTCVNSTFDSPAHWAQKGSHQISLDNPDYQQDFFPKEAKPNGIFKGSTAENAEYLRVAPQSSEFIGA
T2 sequence (P00533 25-645 limits assumed): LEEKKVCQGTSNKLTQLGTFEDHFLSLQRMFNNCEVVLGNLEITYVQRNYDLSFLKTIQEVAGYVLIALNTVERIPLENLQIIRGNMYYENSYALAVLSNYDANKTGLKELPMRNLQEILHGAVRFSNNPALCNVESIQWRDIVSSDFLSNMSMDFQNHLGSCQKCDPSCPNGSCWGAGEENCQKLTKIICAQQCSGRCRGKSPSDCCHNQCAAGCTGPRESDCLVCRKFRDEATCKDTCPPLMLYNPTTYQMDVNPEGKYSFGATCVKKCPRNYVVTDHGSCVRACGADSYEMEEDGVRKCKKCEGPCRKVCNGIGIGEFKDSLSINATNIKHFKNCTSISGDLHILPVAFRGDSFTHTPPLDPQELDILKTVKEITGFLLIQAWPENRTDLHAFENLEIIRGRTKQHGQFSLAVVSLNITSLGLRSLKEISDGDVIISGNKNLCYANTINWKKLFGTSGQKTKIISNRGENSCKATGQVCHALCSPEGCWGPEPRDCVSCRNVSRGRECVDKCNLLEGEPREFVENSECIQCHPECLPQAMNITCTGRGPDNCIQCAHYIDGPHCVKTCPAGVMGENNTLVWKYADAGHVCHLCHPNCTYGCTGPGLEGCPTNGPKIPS

CC(C)C[C@@H]1NC(=O)[C@@H](Cc2cccc3ccccc23)NC(=O)[C@H](CCCNC(=N)N)NC(=O)[C@H](Cc2ccc3ccccc3c2)NC(=O)[C@H](CO)NC1=O [Compound D1, cyclo[(D-1Nal)-Leu-Ser-(L-2Nal)-Arg]] (cyclo([2Nal]R[d1Nal]LS))
lysotracker signal of endocytosed EGFR speckles (EGFR [1]; 1 μM): significantly increased lysotracker signal | EGFR signal (EGFR [1]; 1 μM, vs DMSO): significant reduction in EGFR signal | lysotracker signal (EGFR [1]; 100 μM): increased lysotracker signal | lysotracker signal of endocytosed EGFR speckles (EGFR [1]; 100 μM): significantly increased lysotracker signal | fraction of membrane-localised EGFR signal (EGFR [1]; 100 μM, vs DMSO): significantly reduced | IC50 compared with c2, D2 and D3 ([2]; H3255, HCC827, H1975, HCT116, SW48, SW48G12V, HT29, RKO, 0.01-300 μM, 72 hours): lowest IC50 in all cell lines | efficacy in NSCLC cell lines sensitive and resistant to erlotinib ([2]; HCC827, H1975 and H3255): retained efficacy | efficacy in cetuximab sensitive and resistant cell lines ([2]; SW48 vs SW48G12V, HT29, HCT116 and RKO): comparable efficacy | pERK signal, comparison among LYTAPs (pERK): largest effect | synergy with cetuximab [3]: potent synergy | synergy with cetuximab, U0126 and chloroquine [3]: exhibited synergy with all three | recovery of EGFR levels (EGFR [4]): returned to normal by 24 and 48 hours | potency order in inhibiting the EGF/EGFR interaction (EGF-EGFR interaction): FLM-c2>D1>D2>D3 | inhibition of the EGF/EGFR interaction (EGF-EGFR interaction): inhibited the EGF/EGFR interaction at high concentrations | synergy with cetuximab (SW48 and SW48G12V): significant synergy

CC(C)C[C@@H]1NC(=O)[C@@H](Cc2ccccc2)NC(=O)[C@H](CCCNC(=N)N)NC(=O)[C@H](Cc2ccccc2)NC(=O)[C@H](CO)NC1=O [Compound D3, cyclo[(D-Phe)-Leu-Ser-(L-Phe)-Arg)]] (cyclo(FR[dF]LS))
EGFR signal (EGFR [1]; 1 μM, vs DMSO): significant reduction in EGFR signal | lysotracker signal of endocytosed EGFR speckles (EGFR [1]; 100 μM): significantly increased lysotracker signal | colocalization of EGFR with lysosomes (EGFR [5]): confirmed colocalization of EGFR with lysosomes | potency order in inhibiting the EGF/EGFR interaction (EGF-EGFR interaction): FLM-c2>D1>D2>D3 | inhibition of the EGF/EGFR interaction (EGF-EGFR interaction): inhibited the EGF/EGFR interaction at high concentrations

CS(=O)(=O)CCNCc1ccc(-c2ccc3ncnc(Nc4ccc(OCc5cccc(F)c5)c(Cl)c4)c3c2)o1 [Lapatinib]
effect on EGFR, Rab5 and hGIIA localisation [6]: altering the localisation of hGIIA and Rab5 to become less punctate and more cytosolic

C#Cc1cccc(Nc2ncnc3cc(OCCOC)c(OCCOC)cc23)c1 [erlotinib]
Resistance (H3255): Erlotinib sensitive | IC50 (H3255; [7]): 40 nM | Resistance (H1975): Erlotinib resistant | IC50 (H1975; [7]): 4300 nM

CC(C)C[C@@H]1NC(=O)[C@@H](Cc2ccccc2)NC(=O)[C@H](CCCNC(=N)N)NC(=O)[C@H](Cc2ccc3ccccc3c2)NC(=O)[C@H](CO)NC1=O [Compound D2, cyclo[(D-Phe)-Leu-Ser-(L-2Nal)-Arg]] (cyclo([2Nal]R[dF]LS))
lysotracker signal of endocytosed EGFR speckles (EGFR [1]; 1 μM): significantly increased lysotracker signal | EGFR signal (EGFR [1]; 1 μM, vs DMSO): significant reduction in EGFR signal | lysotracker signal (EGFR [1]; 100 μM): increased lysotracker signal | recovery of EGFR levels (EGFR [4]): returned to normal by 24 and 48 hours | potency order in inhibiting the EGF/EGFR interaction (EGF-EGFR interaction): FLM-c2>D1>D2>D3 | inhibition of the EGF/EGFR interaction (EGF-EGFR interaction): inhibited the EGF/EGFR interaction at high concentrations
